Data reported in ChEMBL document CHEMBL3507680, “University of Dundee, Gates Library screen for HepG2 cell viability”.

test: Human HepG2 cell viability assay in 384 well format; format: toxicity, cell-based; parameters: dose 125 nL, time 70.5 hour; cytotoxicity at 70.5 h: concentration not given beside the values; conditions: HepG2 cells, read-out: Inhibition

Row | Compound | cytotoxicity at 70.5 h [%]
1 | O=C(CCn1ccc2ccccc21)N1CCC(Nc2cccnn2)CC1 | -3.47
2 | COc1cc(C2(C(=O)N3CCCC(n4cncn4)C3)CC2)ccc1C (centres undefined) | -7.1
3 | Cc1ccoc1C(=O)N1Cc2c(Cn3ccnc3)nn(C)c2C1 | 20.4
4 | Cc1ccsc1C(=O)N1CC(C(=O)N2CCCC2)C2(CCOCC2)C1 (centres undefined) | 0.96
5 | CNC(=O)c1n[nH]c2c1C(c1cccc3nsnc13)CC(=O)N2 (centres undefined) | -3.59
6 | Cc1nc(-c2ccccc2)cc2nn(CC(N)=O)c(=O)n12 | -2.53
7 | Cc1csc(C(C#N)C(=O)Nc2ccccc2)n1 (centres undefined) | -0.341
8 | COC(=O)[C@H]1CN(C(=O)NC(C)C)CCN1C(=O)c1cccs1 | -5.45
9 | CC(C)c1noc(CN2CCN(C(=O)c3ccncc3F)CC2)n1 | -9.24
10 | COc1cccc(CCC2CCCN(C(=O)c3ccccn3)C2)c1 (centres undefined) | 17.8
11 | CCc1c(C)nc2cc(C3CCN(Cc4cccnc4)C3)nn2c1O (centres undefined) | -5.28
12 | CCCS(=O)(=O)N1CCOC2(CCCN(c3ccccn3)C2)C1 (centres undefined) | -13.3
13 | CCN1C[C@@H]2CN(Cc3cccs3)C[C@@H]2C1=O | -10.6
14 | Clc1snnc1CN1CCCC(Cn2cncn2)C1 (centres undefined) | 14.5
15 | Clc1ccccc1CCn1ccnc1-c1cn(C2CCNCC2)nn1 | -8.18
16 | CN(C)C(=O)NC1COC2(CCN(Cc3nccn3C)CC2)C1 (centres undefined) | 2.06
17 | Cc1ncc(CN(C)C(=O)c2ccc(N3CCOCC3)c(F)c2)s1 | -6.71
18 | COC(=O)c1ccc(NC(C)c2ccc3c(c2)NC(=O)CO3)nn1 (centres undefined) | -1.28
19 | CCN(CC)c1ccc(C(=O)N2C[C@@H]3CC[C@H](C2)N(CCOC)C3)cc1 | 23.2
20 | COCC(=O)N1CCCC2(CCN(CCN3CCCC3)CC2)C1 | -1.48
21 | c1cc(CN2CCC(c3ccncc3)CC2)cc(Cn2cccn2)c1 | -1.99
22 | O=C(Nc1ccc(N2CCCCC2)nc1)N1CCc2sccc2C1 | 16.2
23 | COc1cccc(N2CC3(CCN(c4ccncn4)C3)CC2=O)c1 (centres undefined) | 14.6

Row | Compound | cytotoxicity at 70.5 h [%]
24 | CCC(=O)N1CCC2(CC1)CN(C(C)=O)c1ccc(C)cc12 | -9.39
25 | Cc1cnc(N)nc1N1CCN(CCCO)CC1 | -10.3
26 | Cc1cn2nc(Sc3nnnn3C)sc2n1 | -4.31
27 | CC(C)NC(=O)N1CCC2(CC(=O)N(c3ccccc3)C2)C1 (centres undefined) | 17.9
28 | O=C(NCc1cc(Cl)ccn1)NCc1ccco1 | 13.9
29 | O=C(Nc1c(N2CCCC2)cccc1N1CCCC1)c1ccccn1 | -12.8
30 | COc1ccccc1C1CCCN1CC(=O)N1CCC(C(N)=O)CC1 (centres undefined) | 22.3
31 | O=C(NCCCNc1ccc(C(F)(F)F)cn1)c1ccc(F)cc1 | -18.9
32 | CN(Cc1ncnn1C)C(=O)Nc1ccc(OC(F)F)cc1 | -8.26
33 | CCN1CCc2cc(-c3cncn3CCNC3CCS(=O)(=O)C3)ccc21 (centres undefined) | -5.23
34 | CN(C)c1nc(N)nc(CN2CCCC(c3ccccc3)CC2)n1 (centres undefined) | -3.13
35 | COc1ccc(C2(C(=O)NCc3c(C)ncc4c3CCNC4)CC2)cc1 | -5.87
36 | CC(C)c1cc(C(=O)N2C[C@H]3CC[C@@H]2CN(Cc2cccnc2)C3)no1 | -12.5
37 | O=C(CCC(=O)NCc1cccc(Br)c1)NCCN1CCCC1 | 23.6
38 | c1cncc(N2CCCC3(CCN(CC4CCCO4)CC3)C2)c1 (centres undefined) | -7.19
39 | Cc1cn(CC(=O)Nc2cc(C(C)C)nn2C)cn1 | -10.1
40 | COCCOC1CCN(C(C(=O)O)c2c(Cl)cccc2OC)CC1 (centres undefined) | -10.5
41 | CCOCCNC(=O)c1cc(Br)c2c(c1)OCCO2 | -10.7
42 | COc1ccc(CC(=O)N(C)Cc2nnc3ccccn23)cc1 | -17.4
43 | COc1ccc(F)c(CN2CCCC3(CCN(C(=O)CSC)C3)C2)c1 (centres undefined) | 8.81
44 | CN(C)c1ncc(-c2ccc(F)cc2)c(C2CNCCO2)n1 (centres undefined) | -2.95
45 | Cc1cc(C)c2nc(CNC3CCNC3=O)cc(O)c2c1 (centres undefined) | -3.2
46 | COCc1ccccc1C(=O)OCc1noc(C)n1 | -15.9

Row | Compound | cytotoxicity at 70.5 h [%]
47 | CS(=O)(=O)NCc1ncn2c1CN(CCN1CCCC1)CCC2 | -6.23
48 | O=S(=O)(NC1=NCN(CCc2cccs2)CN1)c1ccccc1 | -19.9
49 | Fc1ccccc1CN(CCCn1ccnc1)CC1CCOC1 (centres undefined) | 9.07
50 | Cc1nn(C)c2ncc(S(=O)(=O)N3CCCC(C)CC3)cc12 (centres undefined) | -8.46
51 | O=C1N(Cc2cccc(F)c2F)CCCC1(O)CNCc1ccccc1 (centres undefined) | 19.6
52 | O=C(Cn1ccc2cc(Br)ccc21)NCc1ccc(C(=O)O)cc1 | -27.5
53 | CCOCC1CCCN(C(=O)NCc2cn3c(C)cccc3n2)C1 (centres undefined) | 9.89
54 | COc1ncccc1C(=O)Nc1cccc(C[S+](C)[O-])c1C (centres undefined) | -6.07
55 | FC(F)(F)Cc1noc(CN2CCCC2c2noc(C3CC3)n2)n1 (centres undefined) | -8.5
56 | Cc1nn(-c2ccccc2)cc1C(=O)N1CCCC(n2cccn2)C1 (centres undefined) | -1.21
57 | c1cc(CN2CCO[C@H]3[C@H](OCC4CCOCC4)CC[C@@H]32)co1 | -9.4
58 | COc1ncc(NCc2csc(-c3ccco3)n2)cc1C(N)=O | -11
59 | Cc1ccc(N2CCC3(CN(Cc4ccncc4)CCC3(F)F)C2)nn1 (centres undefined) | -1.36
60 | CN(CCNS(C)(=O)=O)CC(c1cccs1)N1CCOCC1 (centres undefined) | -8.66
61 | Cc1noc([C@@H]2C[C@H]3OCC[C@H]3N(Cc3sccc3C)C2)n1 | 4.03
62 | C=C(C)CN1CCC(n2cc(C3CCCC3)nn2)CC1 | -2.5
63 | Cn1ccc(CN2CCC(CO)CC2)cc1=O | -9.02
64 | Cn1ccnc1CCC1CCCCN1Cc1cnc(N2CCCC2)nc1 (centres undefined) | 22.9
65 | Cn1ccnc1CCNS(=O)(=O)c1cccc(Br)c1 | -2.62
66 | Cc1ccccc1-c1cc(CC2(C(=O)O)CCOCC2)on1 | -6.86
67 | Cc1ccc2c(c1)C(NCc1ncnn1C)CC2 (centres undefined) | -5.24
68 | CC(C)CN1C(=O)CO[C@@H]2CN(C(=O)C3CCOC3)C[C@H]21 (some centres undefined) | 39.9
69 | CCN1CCN(C2CCN(Cc3ccc(Cl)s3)CC2)C1=O | 1.3

Row | Compound | cytotoxicity at 70.5 h [%]
70 | Cc1nnc(NCC2(c3ccccc3)CCC2)c(C#N)c1C | 2.86
71 | Cn1ncc2cnn(CC(O)COCc3ccccc3Cl)c2c1=O (centres undefined) | -5.81
72 | Cc1cccc(CN(Cc2nc3c(cnn3C)c(=O)[nH]2)C2CC2)c1 | -6.88
73 | CCOC(=O)N1CCC(NC(C)c2ccccc2-n2cccn2)CC1 (centres undefined) | 35.4
74 | CN1CCCCc2c1nc1c(c2N)CCCC1 | -5.71
75 | O=C(NCc1cnc2n1CCN(Cc1cccs1)C2)c1ccno1 | 18.9
76 | Cc1ncsc1C(=O)NCCN1CCCCCC1=O | -12.3
77 | COc1ccc(CN2CCC3(CC2)CCN(c2ncccn2)CC3)cc1 | -6.69
78 | CC(=O)Nc1nc(C2CCN(C(=O)c3cncs3)CC2)cs1 | 11.2
79 | Cc1nnc(CN(Cc2cccc3c2OCO3)CC2CCCO2)n1C (centres undefined) | -19.6
80 | COc1cc(N2CCC3(CCN(Cc4csc(C)n4)C3=O)C2)ncn1 (centres undefined) | -7.86
81 | O=C1NCC(C(=O)NCc2ccccc2CN2CCOCC2)N1 (centres undefined) | -4.6
82 | Cc1cnn(CC2CN(CC(=O)N(C)c3nccs3)CCO2)c1 (centres undefined) | -2.03
83 | Cc1nc(N(C)C)nc(C)c1NS(=O)(=O)c1ccc(OC(F)(F)F)cc1 | -6.13
84 | CN(C)CCC(Nc1nc(N)nc2c1CCNCC2)c1ccccc1 (centres undefined) | -8.45
85 | Cc1ccc(N2CCc3ncnc(C)c3CC2)nn1 | 18.8
86 | O=C1N[C@@H]2CCN(C(=O)C3CC3)[C@@H]2C(=O)N1c1ccccc1 | -10.7
87 | CCn1ccc(-c2cc(C(=O)O)n3ncc(Br)c3n2)n1 | -11.6
88 | CC(=O)N1CCCC1c1nccnc1NCc1cccnc1 (centres undefined) | -8.19
89 | Cc1cnc2[nH]c(C(F)(F)F)c(CN3CCOCC3)c2c1 | 21.8
90 | CC(C)N1CCC(C(=O)N[C@H](C(=O)O)c2cccc(F)c2F)CC1 | -1.13
91 | CCN(CC)c1ccc(NS(=O)(=O)c2cccnc2)cn1 | -1.98
92 | CN1CCC(NC(=O)Nc2ccc(Br)c(F)c2)C1=O (centres undefined) | 1.65

Row | Compound | cytotoxicity at 70.5 h [%]
93 | Cc1ccc(C)c(SCC(=O)Nc2cccc(C(=O)N(C)C)n2)c1 | 11.9
94 | Cc1n[nH]c(C)c1CN1CC[C@@H]2[C@@H](CCC(=O)N2CCc2c[nH]cn2)C1 | 1.53
95 | O=C1Nc2ccccc2CN(CC2CC2)C12CCNC2 (centres undefined) | -3.48
96 | O=C(N[C@H]1CCCC[C@@H]1O)c1ccc(-c2nc3ccccc3[nH]2)cc1 | -1.28
97 | Cc1ccc(S(=O)(=O)NC[C@H]2OC[C@@H](NCc3cccnc3)[C@@H]2O)cc1 | -7.82
98 | COCC(=O)N1Cc2nccn2CC(CN(C)Cc2cccnc2)C1 (centres undefined) | -7.06
99 | O=C(NCc1cccs1)[C@@H]1CC[C@@H]2[C@@H](CCN2CC2CCC2)O1 | -17.4
100 | CC(=O)N(Cc1noc(C)n1)C1CCN(Cc2ccon2)C1 (centres undefined) | 37.1
101 | CN(C)c1ncc(I)c(C2CCCCN2S(C)(=O)=O)n1 (centres undefined) | -3.68
102 | O=C1CO[C@@H]2CN(CC3CCOC3)C[C@H]2N1Cc1cccc(F)c1 (some centres undefined) | -6.08
103 | N#CCCn1cnc2c(Br)cc(Br)cc2c1=O | -3.9
104 | Cc1noc(CCNC(=O)NCc2ccc(OC3CCCC3)cc2)n1 | 0.994
105 | O=C(O)C1(Cc2cccc(-c3cccs3)c2)CCCNC1 (centres undefined) | 14.3
106 | CCCN1CC(NC(=O)Nc2nc(C)n(C(C)C)n2)CC1=O (centres undefined) | -3.82
107 | COc1cccc(OCCc2nnc(NC(C)=O)s2)c1 | -6.24
108 | Cc1cc(C)n(CCC(=O)N2CCC(c3nc(C)no3)CC2)n1 | -12.5
109 | Cc1nc(C)n(CC2CCCN2CC(=O)Nc2ccnn2C(C)C)n1 (centres undefined) | 17
110 | NCC1CN(Cc2cn(CCC(N)=O)c3ccccc23)CCO1 (centres undefined) | 2.17
111 | CN(C)C(=O)c1ccn(COc2ccccc2Cl)n1 | -2.41
112 | CCCOC1CCCN(c2nc(CC)nc3c2cnn3C)C1 (centres undefined) | -10.7
113 | CC(C)CCC(=O)N1CCN(C(=O)c2ccc3nccn3c2)CC1 | 15.2
114 | CC1CCN(Cc2cnc(S(=O)(=O)CC3CC3)n2CC2CCCO2)CC1 (centres undefined) | 11.8
